# According to patent publication US9138447B2, “Antimicrobial agent and method for the production thereof” (UNIVERSITY COLLEGE CARDIFF CONSULTANTS LTD., priority 2008, dated 2015):
# System: methicillin resistant Staphylococcus aureus (MRSA)
# Assay: Growth inhibition of MRSA
# Format: cell-based
# Text: Mupirocin (Pseudomonic acid A, or Bactroban) is the frontline topical antibiotic used to combat skin infections with gram positive bacteria and is also used in the eradication of MRSA from infected people. It was originally produced as Bactroban by GlaxoSmithKline, but now it is available generically within a number of different commercial formulations. MRSA strain 52 is susceptible to both the P. fluorescens mupirocin (Panel A) and Vietnamycin (BVAS; Panel B). However, MRSA strain 49 is representative of a number of emerging S. aureus strains that are resistant to mupirocin (Panel C).
structure (smiles),measurement,setting,value
"C/C(=C\C(=O)OCCCCCCCCC(=O)O)C[C@@H]1OC[C@H](C[C@@H]2O[C@H]2[C@@H](C)[C@H](C)O)[C@@H](O)[C@H]1O [mupirocin, Mupirocin]",Growth inhibition of mupirocin resistant MRSA (strain 49),mupirocin resistant strain,resistant
same,Growth inhibition of MRSA strain 52,"mupirocin susceptible strain, producer bacterium overlay",susceptible
